# Measurements as given in patent publication US20090226500A1, “SUTURES AND ANTI-SCARRING AGENTS” (Angiotech Pharmaceuticals, Inc, priority 2006, published 2009).
# Structures can show the parent of a compound that is named as a salt. Where two headings read alike, the source gives them in different places.
# Experiments:
# Smooth muscle cells = test: Proliferation of smooth muscle cells; assay type: cell-based; conditions: read-out: IC50 proliferation of smooth muscle cells
# Procedure: Smooth muscle cells at 70-90% confluency were trypsinized, replated at 600 cells/well in media in 96-well plates and allowed to attachment overnight. Paclitaxel was prepared in DMSO at a concentration of 10^−2 M and diluted 10-fold to give a range of stock concentrations (10^−8 M to 10^−2 M). […] Each drug concentration was tested in triplicate wells. Plates containing cells and paclitaxel were incubated at 37° C. for 72 hours.
# (§1) To terminate the assay, the media was removed by gentle aspiration A 1/400 dilution of CYQUANT 400×GR dye indicator (Molecular Probes; Eugene, Oreg.) was added to 1× Cell Lysis buffer, and 200 μL of the mixture was added to the wells of the plate. Plates were incubated at room temperature, protected from light for 3-5 minutes.
# human fibroblasts = test: Cell proliferation of fibroblasts; assay type: cell-based; conditions: Fibroblast, read-out: IC50 cell proliferation of fibroblasts
# Procedure: Fibroblasts at 70-90% confluency are trypsinized, replated at 600 cells/well in media in 96-well plates and allowed to attachment overnight. […] Each drug concentration is tested in triplicate wells. Plates containing fibroblasts and drug substance are incubated at 37° C. for 72 hours.
# as §1, with “is” for “was”, “aspiration.” for “aspiration”, “400×GR™” for “400×GR”, “are” for “were”
Compound,"IC50 (human fibroblasts; 72 hours, CYQUANT) [nM]",also measured
"CO[C@H]1/C=C\C=C(/C)C(=O)NC2=CC(=O)C(NCCN(C)C)=C(C[C@@H](C)C[C@H](OC)[C@H](O)[C@@H](C)/C=C(\C)[C@@H]1OC(N)=O)C2=O [17-DMAG, 17-dimethylaminoethylamino-17-demethoxy-geldanamycin]",0.1 to 10,"IC50 (Smooth muscle cells; 72 hours, CYQUANT): 17 nM"
O=C(O)C[C@H](O)C[C@H](O)/C=C/c1c(C2CC2)nc2ccccc2c1-c1ccc(F)cc1 [Pitavastatin],100 to 600,
CC[C@H](C)C(=O)O[C@H]1C[C@H](O)C=C2C=C[C@H](C)[C@H](CC[C@@H](O)C[C@@H](O)CC(=O)O)[C@H]21 [Pravastatin],1200 to 10000,
O=c1c(O)c(-c2ccc(O)c(O)c2)oc2cc(O)cc(O)c12 [Quercetin dihydrate],100 to 600,
"C#C[C@]1(O)CC[C@H]2[C@@H]3CCc4cc(OC5CCCC5)ccc4[C@H]3CC[C@@]21C [Quinestrol, 17a-Ethynylestradiot 3-cyclopentyl ether]",1200 to 10000,
C[C@@H]1C[C@H]2O[C@@H]2/C=C\C=C\C(=O)Cc2c(Cl)c(O)cc(O)c2C(=O)O1 [Radicicol],10 to 100,
Cc1nc2ccc(CN(C)c3ccc(C(=O)N[C@@H](CCC(=O)O)C(=O)O)s3)cc2c(=O)[nH]1 [Raltitrexed],10 to 100,
COc1ccc(C2CNC(=O)C2)cc1OC1CCCC1 (stereo not drawn) [Rolipram],100 to 600,
CC(C)c1nc(N(C)S(C)(=O)=O)nc(-c2ccc(F)cc2)c1/C=C/[C@@H](O)C[C@@H](O)CC(=O)O [Rosuvastatin],1200 to 10000,
CC(=O)c1c(O)c(C)c(O)c(Cc2c(O)c3c(c(C(=O)/C=C/c4ccccc4)c2O)OC(C)(C)C=C3)c1O [Rottlerin],1200 to 10000,
CC(=O)OCC(=O)NCCCOc1cccc(CN2CCCCC2)c1 [Roxatidine acetate],600 to 1200,
Nc1nccc(-c2c(-c3ccc(F)cc3)ncn2C2CCNCC2)n1 [SB 220025],1200 to 10000,
COc1cccc(-c2ccc(NC(=O)C3=C(C(=O)O)CCC3)c(F)c2)c1 [SC12267],1200 to 10000,
Nc1nc2c(cnn2CCc2ccccc2)c2nc(-c3ccco3)nn12 [SCH-58261],1200 to 10000,
"CCCCCCCCCCCCCCC[C@H](O)[C@@H](N)CO [Safingol, L-threo-Dihydrosphingosine]",600 to 1200,
O=C(/C=C/c1ccccc1)NC(NC(=S)Nc1cccc2cccnc12)C(Cl)(Cl)Cl (stereo not drawn) [Salubrinal],1200 to 10000,
CCCc1nn(C)c2c(=O)[nH]c(-c3cc(S(=O)(=O)N4CCN(C)CC4)ccc3OCC)nc12 [Sildenafil Citrate],1200 to 10000,
NCCCCNCCCN [Spermidine trihydrochloride],1200 to 10000,
NCCCNCCCCNCCCN [Spermine tetrahydrochloride],,IC50 (human fibroblasts; 72 h): 600 to 1200 nM
Cc1ccnc(NS(=O)(=O)c2ccc(N)cc2)n1 [Sulfamerazine],1200 to 10000,

Compound,"IC50 (human fibroblasts; 72 hours, CYQUANT) [nM]",also measured
COc1cc([C@@H]2c3cc4c(cc3[C@@H](O[C@@H]3O[C@@H]5CO[C@@H](c6cccs6)O[C@H]5[C@H](O)[C@H]3O)[C@H]3COC(=O)[C@H]23)OCO4)cc(OC)c1O [Teniposide],10 to 100,
CN(C/C=C/C#CC(C)(C)C)Cc1cccc2ccccc12 [Terbinafine],10 to 100,
C/C=C(/C)C(=O)O[C@H]1C(C)=C2[C@H]([C@@H]1OC(=O)CCCCCCC)[C@@](C)(OC(C)=O)C[C@H](OC(=O)CCC)[C@@]1(O)[C@H]2OC(=O)[C@@]1(C)O [Thapsigargin],0.1 to 10,
Cn1c(=O)c2[nH]cnc2n(C)c1=O [Theophylline],0.1 to 10,
Cc1cccc(Nc2ccncc2S(=O)(=O)NC(=O)NC(C)C)c1 [Torasemide],10 to 100,
CC(=O)Oc1cc(C(F)(F)F)ccc1C(=O)O [Triflusal],10 to 100,
CC(C)[C@]12O[C@H]1[C@@H]1O[C@]13[C@]1(O[C@H]1C[C@H]1C4=C(CC[C@@]13C)C(=O)OC4)[C@@H]2O [Triptolide],0.1 to 10,
"Oc1ccnc(O)n1 [Uracil, 2,4-Dihydroxypyrimidine]",10 to 100,
CC[C@]12CCCN3CCc4c(n(c5ccccc45)[C@@](O)(C(=O)OC)C1)[C@@H]32 [Vincamine],0.1 to 10,
"CC(=O)CC(c1ccccc1)c1c(O)c2ccccc2oc1=O (stereo not drawn) [Warfarin, 3-(a-Acetonylbenzyl)-4-hydroxycoumarin sodium salt]",0.1 to 10,
COc1cc(O)c2c(c1)oc(=O)c1c3cc(O)c(O)cc3oc21 [Wedelolactone],1200 to 10000,
CO[C@H]1C[C@@H]2CC[C@@H](C)[C@@](O)(O2)C(=O)C(=O)N2CCCC[C@H]2C(=O)O[C@H]([C@H](C)C[C@@H]2CC[C@H](n3cnnn3)[C@H](OC)C2)CC(=O)[C@H](C)/C=C(\C)[C@@H](O)[C@@H](OC)C(=O)[C@H](C)C[C@H](C)/C=C/C=C/C=C/1C [Zotarolimus],0.1 to 10,
"Nc1nc(Cl)nc2c1ncn2[C@H]1C[C@H](O)[C@@H](CO)O1 [cladribine, 2-Chloro-2-deoxyadenosine]",,"IC50 (Smooth muscle cells; 72 hours, CYQUANT): 137 nM"
C=C1[C@@H](C)[C@H]2[C@H](Cc3ccccc3)NC(=O)[C@]23OC(=O)/C=C/C(=O)CCC[C@@H](C)C/C=C/[C@H]3[C@@H]1O [cytochalasin A],,"IC50 (Smooth muscle cells; 72 hours, CYQUANT): 221 nM"
C/C1=C/C[C@@H](/C(C)=C/c2csc(C)n2)OC(=O)C[C@H](O)C(C)(C)C(=O)[C@H](C)[C@@H](O)[C@@H](C)CCC1 [epothilone D],10 to 100,IC50 (Smooth muscle cells; 72 h): 5 nM
CC(=O)[C@]1(O)Cc2c(O)c3c(c(O)c2[C@@H](O[C@H]2C[C@H](N)[C@H](O)[C@H](C)O2)C1)C(=O)c1ccccc1C3=O [idarubicin],,"IC50 (Smooth muscle cells; 72 hours, CYQUANT): 38 nM"
CCC(C)n1ncn(-c2ccc(N3CCN(c4ccc(OCC5COC(Cn6cncn6)(c6ccc(Cl)cc6Cl)O5)cc4)CC3)cc2)c1=O (stereo not drawn) [itraconazole],,"IC50 (Smooth muscle cells; 72 hours, CYQUANT): 795 nM"
CC[C@H](C)C(=O)O[C@H]1C[C@@H](C)C=C2C=C[C@H](C)[C@H](CC[C@@H]3C[C@@H](O)CC(=O)O3)[C@H]21 [lovastatin],,"IC50 (Smooth muscle cells; 72 hours, CYQUANT): 978 nM"
CO[C@@]12[C@H](COC(N)=O)C3=C(C(=O)C(C)=C(N)C3=O)N1C[C@@H]1N[C@@H]12 [mitomycin C],,"IC50 (Smooth muscle cells; 72 hours, CYQUANT): 53 nM"
COC(=O)[C@@H]1c2cc3c(c(O)c2[C@@H](O[C@@H]2O[C@@H](C)[C@H](OC)[C@@](C)(OC)[C@H]2OC)C[C@]1(C)O)C(=O)c1c(O)cc2c(c1C3=O)O[C@@H]1O[C@@]2(C)[C@H](O)[C@@H](N(C)C)[C@@H]1O [nogalamycin],,"IC50 (Smooth muscle cells; 72 hours, CYQUANT): 49 nM"
